Legend:
[1] = system: ankylosing spondylitis patients; experiment: Response of ankylosing spondylitis patients to apremilast treatment, by biomarker-defined patient group; assay type: in vivo, human
Procedure: In this example, a group of ankylosing spondylitis patients was identified based on expression profile of 49 biomarkers as being more likely to be responsive to a treatment with apremilast. In particular, Myriad RBM inflammation MAP biomarker panel (having 49 biomarkers) was used to profile 280 patient samples in the study, among which 255 patient samples produced measurable biomarker levels. In these 255 patient samples, 95 patient samples were treated with 20 mg apremilast (“Apremilast 20 mg Arm Group”). Within the Apremilast 20 mg Arm Group, 36 patient samples were responsive to the treatment and 59 patient samples were not responsive to the treatment. 80 patient samples were treated with 30 mg apremilast (“Apremilast 30 mg Arm Group”). Within Apremilast 30 mg Arm Group, 31 patient samples were responsive to the treatment and 49 patient samples were not responsive to the treatment. The remaining 80 patient samples were control samples (placebo arm).
Unsupervised clustering was then used to analyze the biomarker expression profiles for these patient samples based on the 49 biomarkers (consensus clustering/distance (1-PCor)/Ward linkage method). These 49 biomarkers were Alpha-1-Antitrypsin, Alpha-2-Macroglobulin, Beta-2-Microglobulin, Brain-Derived Neurotrophic Factor, C-Reactive Protein, Complement C3, Eotaxin-1, Factor VII, Ferritin, Fibrinogen, Granulocyte-Macrophage Colony-Stimulating Factor, Haptoglobin, Intercellular Adhesion Molecule 1, Interferon gamma, Interleukin-1 alpha, Interleukin-1 beta, Interleukin-1 receptor antagonist, Interleukin-10, Interleukin-12 Subunit p40, Interleukin-12 Subunit p70, Interleukin-15, Interleukin-17, Interleukin-2, Interleukin-23, Interleukin-3, Interleukin-4, Interleukin-5, Interleukin-6, Interleukin-7, Interleukin-8, Macrophage Inflammatory Protein-1 alpha, Macrophage Inflammatory Protein-1 beta, Matrix Metalloproteinase-3, Matrix Metalloproteinase-9, MCP1, Stem Cell Factor, T-Cell-Specific Protein RANTES, Tissue Inhibitor of Metalloproteinases, Tumor Necrosis Factor alpha, Tumor Necrosis Factor beta, Tumor necrosis factor receptor 2, Vascular Cell Adhesion Molecule-1, Vascular Endothelial Growth Factor, Vitamin D-Binding Protein, von Willebrand Factor, Osteoprotegerin, Interleukin-18, RANKL, and Sclerostin.
The results are shown in the plot of FIG. 1A. As shown, a group of 50 patients (cluster 4) were identified as representing about 30% of the total treatment arm population. […] In particular, within this group of 50 patients, the response rate was about 54%, higher than the response rate in the remaining patients which was about 31%.
Each biomarker was then further analyzed for its association with the cluster 4 patient group. MCP1 cytokine was identified as being able to most strongly differentiate the cluster 4 group with the remaining patients. […] The threshold derived from the mid-point (or average) of the median of MCP1 low cluster and the median of non MCP1 low patients was 93.5 pg/ml (see the dash line in the right panel of FIG. 2A).
When the threshold was calculated as the mid-point between median MCP1 level in cluster 4 patient group and median MCP1 level in the remaining patients, the threshold level was 93.5 pg/ml.
A third method used to calculate a MCP1 threshold level was by calculating the mean of thresholds obtained from 10-fold cross validation (discussed above). In particular, each fold provided an optimal threshold according to the AUC metric when classifying for cluster membership. Then, the mean value of the 10 thresholds was calculated. Using this method, the threshold of MCP1 was calculated as 75.63 pg/ml. With this more restrictive learned threshold, the population selected into the MCP1 low group decreased while the response rate of the MCP1 low sub-group increased.

Ankylosing Spondylitis = conditions: after 24 weeks, largest study trial; placebo 22%; cited from earlier work

Molecule: CCOc1cc([C@@H](CS(C)(=O)=O)N2C(=O)c3cccc(NC(C)=O)c3C2=O)ccc1OC [apremilast, (+)-2-[1-(3-ethoxy-4-methoxyphenyl)-2-methylsulfonylethyl]-4-acetylaminoisoindoline-1,3-dione]
- patient samples responsive to the treatment ([1]; Apremilast 20 mg Arm Group, 95 patient samples): 36
- patient samples responsive to the treatment ([1]; Apremilast 30 mg Arm Group, 80 patient samples): 31
- response rate ([1]; MCP1 low group, threshold 75.63 pg/ml, apremilast 30 mg arm (22% of the patients)): 67%
- response rate ([1]; MCP1 low group, threshold 93.5 pg/ml, apremilast 30 mg arm (45% of the patients)): 56%
- response rate ([1]; MCP1 low group, threshold 93.5 pg/ml, both 20 mg and 30 mg arms (36% of the patients)): 49%
- response rate ([1]; cluster 4 (MCP1 low patient group), 50 patients, 20 mg or 30 mg apremilast): about 54%
- response rate ([1]; cluster 4 patients receiving 30 mg apremilast (25 patients)): 64%
- patients responded ([1]; cluster 4 patients receiving 30 mg apremilast, out of 25): 16
- response rate ([1]; patient subgroup differentiated by MCP1 level (14% of total population), apremilast arm 20 mg or 30 mg, FIG. 2B): about 62.5%
- response rate ([1]; patient subgroup differentiated by MCP1 level (20% of apremilast 30 mg arm), 30 mg apremilast, FIG. 2C): about 66.6%
- response rate ([1]; remaining patients (not cluster 4), treatment arms): about 31%
- response rate ([1]; remaining patients in the Apremilast 30 mg Arm Group (not cluster 4)): 27%

Molecule: etanercept
- response rate (ASAS 20 response criteria) (Ankylosing Spondylitis): 57%
